According to patent US20100204144A1, “USE OF THE PEPTIDES MAIPPKKNQDK (COW KAPPA CASEIN 106-116) AND/OR YGFQNA (SERORPHIN) AS THERAPEUTIC AGENTS” (priority 2007, published 2010):
Where no end group is shown, it is not given here.

Key:
HIV-1IIIB = assay: HIV-1 antiviral assay in CEM-SS cells (MTS read-out of virus cell killing)
[1] = test system: hepatitis B virus (HBV) ayw strain; assay: HBV assay in HepG2-2.2.15 cells (secreted HBV DNA, TaqMan PCR); format: cell-based; conditions: 10 micrograms per ml, six days, HBV DNA in supernatant
Source text: HepG2-2.2.15 is a stable cell line containing the hepatitis B virus (HBV) ayw strain genome (ATCC Cat. No. CRL-11997). Antiviral compounds blocking any late step of viral replication such as transcription, translation, pregenome encapsidation, reverse transcription, particle assembly and release can be identified and characterized using this cell line. In this assay, an active compound will reduce the production of secreted HBV from cells, measured by utilizing real time quantitative PCR (TaqMan) assay to directly and accurately measure HBV DNA copies.
HepG2-2.2.15 cells were plated in 96-well microtiter plates. After 16-24 hours the confluent monolayer of HepG2-2.2.15 cells was washed and the medium was replaced with complete medium containing test peptides—10 micrograms per ml—in duplicate. […] Six days following the initial administration of the peptides, the cell culture supernatants was collected, treated with pronase and DNAse and then used in a real-time quantitative TaqMan PCR assay. The PCR-amplified HBV DNA was detected in real-time by monitoring increases in fluorescence signals that result from the exonucleolytic degradation of a quenched fluorescence probe molecule that hybridizes to the amplified HBV DNA. […] Antiviral activity was calculated from the reduction in HBV DNA levels (% virus control). […]

[2] = test system: Human Peripheral Blood Mononuclear Cells (PBMC), B cell proliferation; assay: B cell proliferation assay (SAC plus Interleukin-2, 3H-thymidine); format: cell-based; conditions: 10 micrograms per ml; SAC plus IL-2 stimulated PBMC
Method: Human Peripheral Blood Mononuclear Cells (PBMC) were obtained from normal human donors. The B cell proliferation was induced by stimulation of the cells with the B cell mitogen Staphylococcus aureus Cowans I (SAC) plus Interleukin-2, either in the absence (positive proliferation control), or in the presence of test peptides—10 micrograms per ml—to examine their effects on the B cell response. 10^5/well PBMC were plated in 96-well microtiter plates and assayed in duplicate with the peptides. […] At the end of incubation time, the plates were harvested and the cells counted by liquid scintillation for the incorporation of ^3H-thymidine as a measure of B cell proliferation.

HUVEC = assay: Endothelial tube formation assay; format: cell-based, human; conditions: 10 micrograms per ml, 20 hours
Source text: Positive control was vehicle only.

[3] = test system: Primary Human endothelial cells (HUVEC); assay: Endothelial cell migration assay; format: cell-based; conditions: 10 micrograms per ml, 22 hours
Method: Thereafter, designated concentration of testing peptides -10 micrograms per ml—was added in duplicate wells.

[4] = test system: IL-2, IL-4, IL-5, IFN-γ and TNF-α protein levels of spleen cells; assay: Th1/Th2 cytokine profiling assay (Ovalbumin-restimulated spleen cells, CBA kit); format: cell-based, Balb/c mice; conditions: 10 micrograms per ml; Ovalbumin restimulation, 72 hours
Source text: The Balb/c mice (originated in 1923, it is a popular strain and is used in many different research disciplines. Also classified as an inbred from the production of 20 or more successive brother-sister matings, the Balb/c mouse is albino and small in size) were immunized on Days 1, 15, and 29 with Ovalbumin (Ovalbumin is the main protein found in egg white, commonly used to stimulate an immunological reaction in test animals) in PBS (5 micrograms/injection). On day 50, spleens of the mice were harvested (3 weeks after last boost with Ovalbumin). […] Thereafter, additional Ovalbumin was added to the cells at 10 micrograms/ml for in vitro restimulation of the cells. 72 hours later, cell supernatants were harvested and assayed using the Becton Dickinson Mouse Th1/Th2 Cytokine CBA Kit. This kit can be used to measure Interleukin-2 (IL-2), Interleukin-4 (IL-4), Interleukin-5 (IL-5), Interferon-γ (IFN-γ), and Tumor Necrosis Factor-α (TNF-α) protein levels in a single sample.

[5] = test system: cyclic AMP generation in human peripheral blood mononuclear cells (PBMC); assay: cAMP induction assay (ELISA); format: cell-based; conditions: 10 min at 37° C.
Method: The cAMP kit was used as an immunoassay for the quantitative determination of cyclic AMP generation in human peripheral blood mononuclear cells (PBMC). PBMC were placed in 96-well microtitier plates (50 microliters of cells at 4×10^6/ml) and 50 microliters of medium alone (background control), forskolin (cAMP positive control; 50 micrograms per ml), or test peptides were added. Plates were mixed and incubated for 10 min at 37° C. and the cells were lysed by the addition of 50 microliters of 3% perchloric acid. NaOH was added to neutralize the samples. Plates were centrifuged for 15 min at 2500 rpm and the supernatants removed. The supernatants (diluted 2-fold in assay buffer) were then assayed for the levels of cAMP by ELISA.

Compound	antiviral activity of positive control compounds (HIV-1) (HIV-1IIIB)	inhibition of HBV replication as compared to the virus control infection [1]	inhibition of the proliferation of specifically stimulated human B-cells [2]	inhibition of the tube formation of endothelial cells (HUVEC)	induction of the migration of human endothelial cells [3]	IFNγ spleen cells; TH1 response (% of control) [4]	IL-2 spleen cells (% of control) [4]	IL-4 spleen cells; TH2 response (% of control) [4]	IL-5 spleen cells; TH2 response (% of control) [4]	TNF-a spleen cells; TH1 response (% of control) [4]	induction of cAMP formation in human peripheral blood cells [5]
Cc1cn([C@H]2C[C@H](N=[N+]=[N-])[C@@H](CO)O2)c(=O)[nH]c1=O [AZT]	expected levels of antiviral activity	–	–	–	–	–	–	–	–	–	–
CC(C)(C)NC(=O)[C@@H]1CN(Cc2cccnc2)CCN1C[C@@H](O)C[C@@H](Cc1ccccc1)C(=O)N[C@H]1c2ccccc2C[C@H]1O [indinavir]	expected levels of antiviral activity	–	–	–	–	–	–	–	–	–	–
Met-Ala-Ile-Pro-Pro-Lys-Lys-Asn-Gln-Asp-Lys-OH (MAIPPKKNQDK-OH) [peptide 1]	–	29.4%	21.2%	23%	22%	63.4 % of control	0.0 % of control	0.0 % of control	57.1 % of control	74.9 % of control	5.3%
Tyr-Gly-Phe-Gln-Asn-Ala-OH (YGFQNA-OH) [peptide 2]	–	35.7%	7.1%	21%	26%	48.2 % of control	0.0 % of control	0.0 % of control	42.2 % of control	81.4 % of control	1.8%
